Measured values taken from paper PMC3634028, “Novel α-MSH Peptide Analogues with Broad Spectrum Antimicrobial Activity” (PLoS ONE, 2013).
In brackets after ≈: the same amount, converted by molar mass. Where a SMILES comes first, the peptide text is derived from it.

Tests used:
Bacillus megaterium Bm11 = type: cell-based; details: Bacillus Bm11, 18 h
Protocol: (§1) The strains used for the antimicrobial assays were the Gram-negative bacteria Acinetobacter baumani ATCC 19606, Escherichia coli D21, Pseudomonas aeruginosa ATCC 27853, and Pseudomonas syringae pv tabaci 1918NCPPB and the Gram-positive bacteria Bacillus megaterium Bm11, Staphylococcus aureus ATCC 25923, and Staphylococcus epidermidis ATCC 12228. Susceptibility testing was performed by adapting the microbroth dilution method outlined by the Clinical and Laboratory Standards Institute, using sterile 96-well plates (Falcon NJ, USA). The bacterial growth was aseptically measured by absorbance at 590 nm with a spectrophotometer (UV-1700 Pharma Spec Shimadzu, Tokyo, Japan). Afterwards, aliquots (50 µl) of bacteria in mid-log phase at a concentration of 2×10^6 colony-forming units (CFU)/mL in culture medium (Mueller-Hinton, MH) were added to 50 µl of MH broth containing the peptide in serial 2-fold dilutions ranging from 1.56 to 100 µM. Inhibition of microbial growth was determined by measuring the absorbance at 590 nm, after an incubation of 18 h at 37°C with a microplate reader (Infinite M200; Tecan, Salzburg, Austria).

[1] = tested on: Staphylococcus aureus ATCC 25923; type: cell-based; details: ATCC 25923, 18 h
Protocol: as §1

[2] = tested on: Acinetobacter baumani ATCC 19606; type: cell-based; details: ATCC 19606, 18 h
Protocol: as §1

[3] = tested on: Pseudomonas syringae pv tabaci 1918NCPPB; type: cell-based; details: 18 h
Protocol: as §1

[4] = tested on: Staphylococcus epidermidis ATCC 12228; type: cell-based; details: ATCC 12228, 18 h
Protocol: as §1

[5] = tested on: Pseudomonas aeruginosa ATCC 27853; type: cell-based; details: ATCC 27853, 18 h
Protocol: as §1

Escherichia coli D21 = type: cell-based; details: D21, 18 h
Protocol: as §1

C. glabrata = type: cell-based, Candida glabrata; details: 48 h
Protocol: (§2) Two Candida albicans isolates were purchased from the ATCC (No. 24433 and 76615). The other yeast isolates were obtained from the collection of Fondazione Ca' Granda- Ospedale Maggiore Policlinico, Milano. The collection included C. albicans (7 isolates), C. glabrata (3 isolates), and C. krusei (3 isolates). Antifungal susceptibility testing was performed using the broth microdilution method according to the NCCLS M27-A guidelines (National Committee for Clinical Laboratory Standards. 1997, Reference method for broth dilution antifungal susceptibility testing of yeasts and approved standard NCCLS document M27-A. National Committee for Clinical Laboratory Standards, Wayne, Pa.). […] After 48 h of incubation, the plates were inspected for purity. A colony was taken from the agar plate and transferred into 5 mL Sabouraud-dextrose broth and incubated for 48 h at 35°C. Cells were centrifuged at 1,000× g for 10 min and the pellet was washed twice with distilled water. Cells were counted and suspended in RPMI 1640 medium buffered to pH 7.0 with 0.165 mol l^−1 morpholinepropanesulphonic acid (MOPS) buffer (Sigma) to obtain the two times test inoculum (1×10^3 to 5×10^3 CFU/mL). […] The MIC90, i.e. the minimum inhibitory concentrations endpoint were determined as 90% reduction in turbidity measured using a spectrophotometer (Titertek multiscan at 690 nm wave length).

C. albicans = type: cell-based, Candida albicans; details: 48 h
Protocol: as §2

C. krusei = type: cell-based, Candida krusei; details: 48 h
Protocol: as §2

[6] = tested on: HaCaT keratinocyte cell line; assay: Cytotoxic activity, MTT colorimetric method; type: cell-based, human; details: 24 h; for cell death / killing of human keratinocytes: highest peptide concentration used (100 µM)
Protocol: Effects on viability was tested in the immortalised keratinocyte cell line HaCaT using the [3(4,5-dimethylthiazol-2yl)2,5-diphenyltetrazolium bromide] (MTT) colorimetric method in which the intensity of the dye is proportional to the number of viable cells. MTT is a tetrazolium salt which is reduced to a colored formazan product by mitochondrial reductases present only in metabolically active cells. Cells were cultured in Dulbecco's modified Eagle's medium (DMEM; Sigma) supplemented with 10% heat inactivated fetal bovine serum, glutamine (4 mM) and gentamicin. Afterwards, cells were plated in triplicate wells of a microtiter plate, at 4×10^4 cells/well in DMEM supplemented with 2% serum without antibiotic. After overnight incubation at 37°C in a 5% CO2 atmosphere, the medium was replaced with […] fresh DMEM supplemented with the peptides at different concentrations. The plate was incubated for 24 h at 37°C in a 5% CO2 atmosphere. Then, DMEM was removed and replaced with Hank's medium (136 mM NaCl; 4.2 mM Na2HPO4; 4.4 mM KH2PO4; 5.4 mM KCl; 4.1 mM NaHCO3, pH 7.2, supplemented with 20 mM D-glucose) containing 0.5 mg/ml MTT. After 4 h incubation, the formazan crystals were dissolved by adding 100 µl of acidified isopropanol and absorption of each well was measured using a microplate reader (Infinite M200; Tecan, Salzburg, Austria) at 570 nm. Cell viability was e expressed as percentage of viability in control cells (cells not treated with peptide).
Figure 1 Effects of the synthetic melanocortins on viability of HaCat cells. Cells were plated in wells of a microtiter plate, at 4×10^4 cells/well in DMEM supplemented with 2% serum without antibiotic. After overnight incubation at 37°C in a 5% CO2 atmosphere, the medium was replaced with 100 µl fresh DMEM supplemented with the peptides at different concentrations. […] Cell viability is expressed as percentage of viability in control cells (cells not treated with the peptide).

[7] = tested on: Candida strains (C. albicans, C. glabrata, C. krusei); assay: Anti-Candida assay, overall result in words; type: cell-based, Candida spp; details: standard culture conditions, broth culture medium
Protocol: as §2

Row | SMILES | MIC 100 (Bacillus megaterium Bm11) [µM] | MIC 100 [1] [µM] | MIC 100 [2] [µM] | MIC 100 [3] [µM] | MIC 100 [4] [µM] | MIC 100 [5] [µM] | MIC 100 (Escherichia coli D21) [µM] | MIC 90 (C. glabrata) [µM] | MIC 90 (C. albicans) [µM] | MIC 90 (C. krusei) [µM] | cell death / killing of human keratinocytes [6] | antimicrobial / anti-Candida activity (in words) [7] | toxic effects on human keratinocytes (in words) ([6]; at 50–100 µM concentrations) | toxic activity on human keratinocytes (in words) ([6]; up to a concentration of 12.5 µM)
1 | CC(C)[C@H](NC(=O)[C@H](Cc1ccccc1)NC(=O)[C@H](CCCCN)NC(=O)[C@@H](NC(=O)[C@H](Cc1c[nH]c2ccccc12)NC(=O)[C@H](CCCNC(=N)N)NC(=O)[C@@H](Cc1ccc2ccccc2c1)NC(=O)[C@@H](N)Cc1c[nH]cn1)C(C)(C)C)C(N)=O [Peptide 3, H-His-D(2′)Nal-Arg-Trp-tBuGly-Lys-Phe-Val-NH2] (HELM PEPTIDE1{H.[O=C([C@@H](Cc1ccc2ccccc2c1)N[*:1])[*:2]].R.W.[CC(C)(C)[C@H](N[*:1])C(=O)[*:2]].K.F.V.[am]}$$$$V2.0) | 6.25 (≈ 7.38 µg/mL) | >100 | 100 (≈ 118 µg/mL) | >100 | 50 (≈ 59.1 µg/mL) | 50 (≈ 59.1 µg/mL) | 50 (≈ 59.1 µg/mL) | >100 | >100 | >100 | less than 30% | inactive |  | 
2 | CC(C)[C@H](NC(=O)[C@H](Cc1ccccc1)NC(=O)[C@H](CCCCN)NC(=O)C1(NC(=O)[C@H](Cc2c[nH]c3ccccc23)NC(=O)[C@H](CCCNC(=N)N)NC(=O)[C@@H](Cc2ccc3ccccc3c2)NC(=O)[C@@H](N)Cc2c[nH]cn2)Cc2ccccc2C1)C(N)=O [Peptide 8, H-His-D(2′)Nal-Arg-Trp-Aic-Lys-Phe-Val-NH2] (HELM PEPTIDE1{H.[O=C([C@@H](Cc1ccc2ccccc2c1)N[*:1])[*:2]].R.W.[O=C(C1(N[*:1])Cc2ccccc2C1)[*:2]].K.F.V.[am]}$$$$V2.0) | 1.56 (≈ 1.91 µg/mL) | 12.5 (≈ 15.3 µg/mL) | 12.5 (≈ 15.3 µg/mL) | 25 (≈ 30.7 µg/mL) | 6.25 (≈ 7.67 µg/mL) | 50 (≈ 61.4 µg/mL) | 12.5 (≈ 15.3 µg/mL) | 100 (≈ 123 µg/mL) |  |  | 50–100% |  |  | 
3 | CC(C)[C@H](NC(=O)[C@H](Cc1ccccc1)NC(=O)[C@H](CCCCN)NC(=O)[C@H](Cc1ccccc1)NC(=O)[C@H](Cc1c[nH]c2ccccc12)NC(=O)[C@H](CCCNC(=N)N)NC(=O)[C@@H](Cc1ccc2ccccc2c1)NC(=O)[C@@H](N)Cc1c[nH]cn1)C(N)=O [Peptide 9, H-His-D(2′)Nal-Arg-Trp-Phe-Lys-Phe-Val-NH2] (HELM PEPTIDE1{H.[O=C([C@@H](Cc1ccc2ccccc2c1)N[*:1])[*:2]].R.W.F.K.F.V.[am]}$$$$V2.0) | 3.125 (≈ 3.8 µg/mL) | 50 (≈ 60.8 µg/mL) | 25 (≈ 30.4 µg/mL) | 100 (≈ 122 µg/mL) | 12.5 (≈ 15.2 µg/mL) | 25 (≈ 30.4 µg/mL) | 50 (≈ 60.8 µg/mL) | >100 |  | >100 | less than 30% | decreased activity |  | 
4 | CC(C)[C@H](NC(=O)[C@H](Cc1ccccc1)NC(=O)[C@H](CCCCN)NC(=O)[C@H](CC1CCCCC1)NC(=O)[C@H](Cc1c[nH]c2ccccc12)NC(=O)[C@H](CCCNC(=N)N)NC(=O)[C@@H](Cc1ccc2ccccc2c1)NC(=O)[C@@H](N)Cc1c[nH]cn1)C(N)=O [Peptide 10, H-His-D(2′)Nal-Arg-Trp-Cha-Lys-Phe-Val-NH2] (HELM PEPTIDE1{H.[O=C([C@@H](Cc1ccc2ccccc2c1)N[*:1])[*:2]].R.W.[Cha].K.F.V.[am]}$$$$V2.0) | 3.125 (≈ 3.82 µg/mL) | 12.5 (≈ 15.3 µg/mL) | 12.5 (≈ 15.3 µg/mL) | 25 (≈ 30.5 µg/mL) | 6.25 (≈ 7.63 µg/mL) | 25 (≈ 30.5 µg/mL) | 6.25 (≈ 7.63 µg/mL) | >100 |  |  |  | potency similar to that of peptide 8 | exerted toxic effects | completely devoid of toxic activity
5 | CC(C)[C@H](NC(=O)[C@H](Cc1ccccc1)NC(=O)[C@H](CCCCN)NC(=O)CCNC(=O)[C@H](Cc1c[nH]c2ccccc12)NC(=O)[C@H](CCCNC(=N)N)NC(=O)[C@@H](Cc1ccc2ccccc2c1)NC(=O)[C@@H](N)Cc1c[nH]cn1)C(N)=O [Peptide 11, H-His-D(2′)Nal-Arg-Trp-βAla-Lys-Phe-Val-NH2] (HELM PEPTIDE1{H.[O=C([C@@H](Cc1ccc2ccccc2c1)N[*:1])[*:2]].R.W.[bAla].K.F.V.[am]}$$$$V2.0) |  |  |  |  |  |  |  | >100 | >100 | >100 |  | no anti-Candida activity |  | 
6 | CC(C)[C@H](NC(=O)[C@H](Cc1ccccc1)NC(=O)[C@H](CCCCN)NC(=O)[C@@H]1CCC[C@H]1NC(=O)[C@H](Cc1c[nH]c2ccccc12)NC(=O)[C@H](CCCNC(=N)N)NC(=O)[C@@H](Cc1ccc2ccccc2c1)NC(=O)[C@@H](N)Cc1c[nH]cn1)C(N)=O [Peptide 12, H-His-D(2′)Nal-Arg-Trp-Acpc-Lys-Phe-Val-NH2] (HELM PEPTIDE1{H.[O=C([C@@H](Cc1ccc2ccccc2c1)N[*:1])[*:2]].R.W.[O=C([C@@H]1CCC[C@H]1N[*:1])[*:2]].K.F.V.[am]}$$$$V2.0) |  |  |  |  |  |  |  | >100 | >100 | >100 |  | no anti-Candida activity |  | 
7 | CC(C)[C@H](NC(=O)[C@H](Cc1ccccc1)NC(=O)[C@H](CCCCN)NC(=O)CNC(=O)CNC(=O)[C@H](Cc1c[nH]c2ccccc12)NC(=O)[C@H](CCCNC(=N)N)NC(=O)[C@@H](Cc1ccc2ccccc2c1)NC(=O)[C@@H](N)Cc1c[nH]cn1)C(N)=O [Peptide 13, H-His-D(2′)Nal-Arg-Trp-Gly-Gly-Lys-Phe-Val-NH2] (HELM PEPTIDE1{H.[O=C([C@@H](Cc1ccc2ccccc2c1)N[*:1])[*:2]].R.W.G.G.K.F.V.[am]}$$$$V2.0) |  |  |  |  |  |  |  | >100 | >100 | >100 |  | no activity |  | 
